Data reported in publication PMC9549030, “Structural basis for specific inhibition of the deubiquitinase UCHL1” (Nature Communications, 2022).
Numbering of substitutions follows the chain as printed. Several values for one entry are separate records, joined by “and”; a condition that tells them apart may be missing. Identical values can stand only once. Entries after “also recorded” stand apart in the source; their conditions may differ. Like-named read-outs stand apart in the source and are kept apart here.

Key:
HEK293 cells = test: Cell growth and viability assay (confluency, propidium iodide); type: cell-based, human
Procedure: (§1) HEK293 cells (5 × 10^3/well) or U-87 MG cells (5.5 × 10^3/well) were seeded into 96-well dishes. The following day cells were treated with the compounds at varying concentrations and propidium iodide at 20 µg/mL. The plates were immediately transferred to the Incucyte S3. Bright-field and red fluorescent images were automatically captured at 1 or 2 h intervals for 72 h with 10x magnification. The confluency of cells and the number of PI-positive cells was determined using the Incucyte masking program.

U-87 MG cells = test: as above; type: cell-based, human; details: up to 5 µM, up to 72 h
Procedure: as §1

[1] = tested on: monoubiquitin in U-87 MG cells; test: Quantification of monoubiquitin levels; type: cell-based, human; details: 48 h, independent experiments
Procedure: U-87 MG cells (5 × 10^5/well) were seeded in six-well plates and cultivated for 8 h. Cells were transfected with siRNA as described above. On the next day, cells were cultured in fresh media supplemented with either compounds (final conc. 5 µM) or DMSO, where indicated, for a further 48 h. The media was changed every 24 h to a fresh medium supplemented with compounds (final conc. 5 µM) or DMSO. […] Monoubiquitin band intensities were first normalized to α-tubulin or total protein (Fast Green FCF, TCI) and subsequently normalized to the intensities of monoubiquitin bands in the sample treated with DMSO or siScr (where no DMSO was used) which was set to “1”.

UCHL1 [2] = target: T1, UCHL1 (Homo sapiens, UniProt P09936); test: Ub-Rhodamine (Ubiquitin rhodamine cleavage) assay; type: biochemical; details: 1 h preincubation; for IC50: read-out: IC50 (UCHL1)
T1 sequence (P09936 1-223): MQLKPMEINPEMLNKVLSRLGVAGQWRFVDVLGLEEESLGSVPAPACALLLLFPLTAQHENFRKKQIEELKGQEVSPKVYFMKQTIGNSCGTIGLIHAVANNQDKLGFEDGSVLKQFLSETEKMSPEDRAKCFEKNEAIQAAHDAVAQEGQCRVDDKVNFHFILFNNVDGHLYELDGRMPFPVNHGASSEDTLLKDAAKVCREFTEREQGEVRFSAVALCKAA

HEK293 cells proteome = test: Identification of probe-labeled proteins with mass spectrometry (pulldown, other proteins); details: 1 µM, vs DMSO
Procedure: Cells were cultured, treated with a compound, and lysed as described above. The cell lysate was diluted to a protein concentration of 2 mg/mL with ABP lysis buffer. 1 µL of each click reagent (see above) were added to each sample, followed by an incubation period of one hour at room temperature with protection from light. The sample volume was adjusted to 1000 µL with PBS and 30 µL of a NeutrAvidin (Thermo Fisher) bead slurry (prewashed 3x with PBS) were added to each sample. The samples were incubated for one hour to overnight on a rotator at 15 rpm at 4 °C. […] Tryptic peptides were desalted with C18 StageTips and analyzed by nano-HPLC-MS/MS.
An Ultimate 3000 RSLC nano-HPLC system and a Hybrid-Orbitrap mass spectrometer (Q Exactive Plus) equipped with a nano-spray source (Thermo Fisher Scientific) was used. […] Proteins were relatively quantified by using MaxQuant[60] v.2.0.3.1, including the Andromeda search algorithm and searching the Homo sapiens reference proteome of the UniProt database. […] Only proteins for which at least two peptides were quantified were chosen for further validation. Relative quantification of proteins was performed by using the label-free quantification algorithm implemented in MaxQuant. […] Label-free quantification (LFQ) intensities were log-transformed (log2); replicate samples were grouped together. […]

UCHL1 [3] = target: T1, UCHL1; test: Thermal shift assay; type: binding; details: for melting temperature (Tm) of UCHL1: UCHL1 1 µM, 1 h, replicates
Procedure: Reactions were performed in white 96-well PCR plates (Bio-Rad). UCHL1 was diluted in thermal shift buffer (1x PBS, 5 mM DTT) to a 4x concentration of 4 µM. The protein was then mixed with 4x compound dissolved in thermal shift buffer in a 1:1 ratio. To each well was added 20 µL of DUB-Inhibitor solution, followed by 1 h incubation time. To each well was then added 20 µL 4x SYPRO Orange in thermal shift buffer. After sealing the plates with a transparent film, thermal denaturation (gradient: 20–90 °C; Increment: 0.3 °C, hold for 5 s before read) was performed and monitored by a Bio-Rad Connect cycler.

UCHL1 [4] = target: T1, UCHL1; test: Identification of probe-labeled proteins with mass spectrometry (pulldown enrichment); details: HEK293 cells; 1 µM; 24 h
Procedure: Cells were cultured, treated with a compound, and lysed as described above. The cell lysate was diluted to a protein concentration of 2 mg/mL with ABP lysis buffer. 1 µL of each click reagent (see above) were added to each sample, followed by an incubation period of one hour at room temperature with protection from light. The sample volume was adjusted to 1000 µL with PBS and 30 µL of a NeutrAvidin (Thermo Fisher) bead slurry (prewashed 3x with PBS) were added to each sample. The samples were incubated for one hour to overnight on a rotator at 15 rpm at 4 °C. Beads were pelleted by centrifugation, the supernatant was discarded, and the beads were washed six times (1x with ½x lysis buffer, followed by five washes with PBS). After removing the washing solution completely, the beads were subjected to reduction with dithiothreitol (1 mM), alkylation with chloroacetamide (5 mM) and on-bead digestion with first LysC (Serva Biotech, 1 h, 37 °C), followed by trypsin (Sigma Aldrich, 1 h, overnight). Tryptic peptides were desalted with C18 StageTips and analyzed by nano-HPLC-MS/MS.
An Ultimate 3000 RSLC nano-HPLC system and a Hybrid-Orbitrap mass spectrometer (Q Exactive Plus) equipped with a nano-spray source (Thermo Fisher Scientific) was used. The protein fragments were enriched on a C18 PepMap 100 column (5 μm, 100 Å, 300 μm ID * 5 mm, Dionex) using 0.1% TFA, at a flow rate of 30 μL/min, for 5 min and separated on a C18 PepMap 100 column (3 μm, 100 Å, 75 μm ID × 50 cm) using a linear gradient (5–30% ACN/H2O + 0.1% formic acid over 90 min) with a flow rate of 300 nL/min. […] Signals in the mass range of m/z 300 to 1650 were acquired at a resolution of 70,000 for the full scan, followed by ten high-energy collision-dissociation (HCD) MS/MS scans of the most intense at least doubly charged ions at a resolution of 17,500. Proteins were relatively quantified by using MaxQuant[60] v.2.0.3.1, including the Andromeda search algorithm and searching the Homo sapiens reference proteome of the UniProt database. Briefly, an MS/MS ion search was performed for enzymatic trypsin cleavage, allowing two missed cleavages. Carbamidomethylation was set as a fixed protein modification, and oxidation of methionine and acetylation of the N-terminus were set as variable modifications. The mass accuracy was set to 20 parts per million (ppm) for the first search and to 4.5 ppm for the second search. The false discovery rates for peptide and protein identification were set to 0.01. Only proteins for which at least two peptides were quantified were chosen for further validation. Relative quantification of proteins was performed by using the label-free quantification algorithm implemented in MaxQuant. Statistical data analysis of pulldown samples was performed using Perseus[61] v.1.6.15.0, including proteins which were identified in at least four of the five biological replicates which were used per condition. Label-free quantification (LFQ) intensities were log-transformed (log2); replicate samples were grouped together. Pairwise comparisons of groups were performed separately. Missing values were imputed using small normally distributed values (width 0.3, downshift 1.8) and a two-sided t-test (s0 = 5, FDR = 0.001) was performed.

UCHL1 in HEK293 cells = tested on: T2, UCHL1 in HEK293 cells; test: Cellular Ub-probe (HA-Ub-VS) competition, inhibition of cellular UCHL1; type: cell-based, human
T2 construct: Western blot analysis of endogenous UCHL1 labeled with HA-Ub-VS after treatment of HEK293 cells; endogenous in cells; host or cells: HEK293
Procedure: (§2) Proteins were transferred to a polyvinylidene fluoride (PVDF, only experiments in Fig. 4e and Supplementary Fig. 7e, f) or nitrocellulose (all other experiments) membrane using a Trans-Blot Turbo system (Bio-Rad, 1.3 A, 25 V, 10 min). The membranes were blocked with 5% (m/v) nonfat milk in PBS-T buffer and incubated with indicated primary antibodies (anti-UCHL1, 1:1000, Cell Signaling, D3T2E; anti-PARK7, 1:1000, Cell Signaling, D29E5; anti-Tubulin, 1:4000, Sigma, T6199; anti-Hemagglutinin, 1:1000, BioLegend, 16B12; anti-flag, 1:2000, Sigma, F3165; anti-Ubiquitin, 1:1000, Cell Signaling, P4D1; anti-Ubiquitin, 1:300, Santa Cruz, P4D1, sc-8017; anti-UCHL3, 1:1000, Proteintech, 12384-1-AP) overnight. Then the membranes were incubated with the respective secondary antibody (anti-mouse,1:5000, Sigma, NXA931; anti-rabbit, 1:5000, Sigma, GENA934) coupled to horseradish peroxidase. The chemiluminescent reaction was initiated using a Clarity Western ECL substrate (Bio-Rad) and images were taken on a ChemiDoc MP Imaging System (Bio-Rad).
(§3) The total protein concentration was adjusted to 2 mg/ml by diluting each sample with ABP lysis buffer. A final concentration of 1 µM HA-Ub-VS probe was added, followed by incubation for 30 min at 37 °C. The labeling reaction was quenched by the addition of 4x LDS sample buffer. The samples were separated via SDS-PAGE and further analyzed via western blotting as described above.

UCHL1 [5] = target: T1, UCHL1; test: kobs/[I] kinetic assay; type: biochemical; details: mean ± SD of independent experiments
Procedure: Reactions were performed in 384 well plates as above. Compound (5 µL of a 4x stock in reaction buffer H supplemented with 2.5 mM TCEP; varying final concentrations ranging from 78 nM to 200 µM) and Ub-Rhodamine 110 (5 µL of a 4x stock in buffer H supplemented with 2.5 mM TCEP; final concentration: 50 nM) were mixed in a 1:1 ratio.

DUBs in HEK293 lysate = test: Activity-based protein profiling in the lysate with Ub-VS competition; type: binding, human; details: 1 µM, 1 h
Procedure: Cells (4 × 10^6) were seeded in 10 cm dishes and grown to 90% confluency. The medium was aspirated, cells were washed with ice-cold PBS, treated with 600 µL ABP lysis buffer (1% (v/v) IGEPAL, 50 mM Tris, 150 mM NaCl, 5% glycerol, pH 8, cOmplete protease inhibitor cocktail), and incubated on ice for 15 min. The lysed cells were scrapped off the dish, cleared by centrifugation, and the protein concentration was determined via a Bradford assay. […] Each compound was diluted to a 2x concentration in PBS buffer from a 10 mM stock in DMSO (final concentration: 1 µM). Then each compound dilution or a DMSO dilution was mixed with cell lysate and incubated for one hour at room temperature. […] Samples were resolved by SDS-PAGE using a 4–12% Bis-Tris gel (Invitrogen, NuPAGE) with MES SDS running buffer for 50 min at 180 V. Fluorescence was read out using the Alexa564 (λex/em 520–545/577–613 nm, for TAMRA) and Alexa680 (λex/em 650–675/700–730 nm, for the PageRuler Prestained NIR Protein Ladder (Thermo Scientific)) channels on a ChemiDoc MP Imaging System (Bio-Rad).

UCHL1 in U-87 MG cells = tested on: T3, UCHL1 in U-87 MG cells; test: Cellular Ub-probe (HA-Ub-VS) competition, inhibition of cellular UCHL1; type: cell-based, human; details: 1 or 24 h
T3 construct: Western blot analysis of endogenous UCHL1 labeled with HA-Ub-VS after treatment of U-87 MG cells; endogenous in cells; host or cells: U-87 MG
Procedure: as §2, §3

UCHL3 A11I = target: T4, UCHL3 A11I (Homo sapiens, UniProt P15374, A11I); test: Ub-Rhodamine (Ubiquitin rhodamine cleavage) assay; type: biochemical; details: Supplementary Fig. 10d; 5 mM DTT in buffer H; read-out: IC50 (UCHL3 A11I)
T4 sequence (P15374 1-230 A11I): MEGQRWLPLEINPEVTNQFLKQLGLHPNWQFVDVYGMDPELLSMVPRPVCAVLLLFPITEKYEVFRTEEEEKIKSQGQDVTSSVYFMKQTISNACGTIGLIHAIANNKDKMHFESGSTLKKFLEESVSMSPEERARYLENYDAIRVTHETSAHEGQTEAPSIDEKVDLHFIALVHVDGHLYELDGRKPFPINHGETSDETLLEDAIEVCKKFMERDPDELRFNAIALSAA

UCHL3 = target: T5, UCHL3 (Homo sapiens, UniProt P15374); test: Ub-Rhodamine (Ubiquitin rhodamine cleavage) assay; type: biochemical; details: Supplementary Fig. 10d; 5 mM DTT in buffer H; read-out: IC50 (UCHL3 wt)
T5 sequence (P15374 1-230): T4 sequence (P15374 1-230 A11I) with I11A

UCHL3 A11I+L168F = target: T6, UCHL3 A11I+L168F (Homo sapiens, UniProt P15374, A11I/L168F); test: Ub-Rhodamine (Ubiquitin rhodamine cleavage) assay; type: biochemical; details: Supplementary Fig. 10d; 5 mM DTT in buffer H; read-out: IC50 (UCHL3 A11I+L168F)
T6 sequence (P15374 1-230 A11I/L168F): T4 sequence (P15374 1-230 A11I) with L168F

UCHL3 L168F = target: T7, UCHL3 L168F (Homo sapiens, UniProt P15374, L168F); test: Ub-Rhodamine (Ubiquitin rhodamine cleavage) assay; type: biochemical; details: Supplementary Fig. 10d; 5 mM DTT in buffer H; read-out: IC50 (UCHL3 L168F)
T7 sequence (P15374 1-230 L168F): T4 sequence (P15374 1-230 A11I) with I11A, L168F

Cathepsin C = tested on: Cathepsin C; set-up: method as in SI-Ref-4; details: ref SI-Ref-4; cited from earlier work

C#CCCCNC(=O)[C@H]1CCN(C#N)C1 [GK16S]
growth arrest and apoptosis (HEK293 cells; up to 5 µM, up to 72 h): neither GK13S nor GK16S showed growth arrest nor apoptosis
toxicity (cell growth and viability) (U-87 MG cells): nontoxic
monoubiquitin intensity normalized to DMSO (= 1) ([1]; siSCr, 5 µM): 1.022 and 1.336 and 1.231 and 0.8547
monoubiquitin intensity normalized to DMSO (= 1) ([1]; siUCHL3, 5 µM): 1.049 and 0.9228 and 0.9331 and 0.7832 and 1.05 and 0.7905
IC50 (UCHL1 [2]): > 100 µM
remaining activity at 0.00050402 µM (UCHL1 [2]; compound 0.50402 nM, read-out: UCHL1 activity, data point mean): 90.8%
remaining activity at 0.00151206 µM (UCHL1 [2]; compound 1.51206 nM, read-out: UCHL1 activity, data point mean): 89.7%
remaining activity at 0.00453618 µM (UCHL1 [2]; compound 4.53618 nM, read-out: UCHL1 activity, data point mean): 99.1%
remaining activity at 0.0136085 µM (UCHL1 [2]; compound 13.6085 nM, read-out: UCHL1 activity, data point mean): 96.8%
remaining activity at 0.0408257 µM (UCHL1 [2]; compound 40.8257 nM, read-out: UCHL1 activity, data point mean): 83.7%
remaining activity at 0.122477 µM (UCHL1 [2]; compound 122.477 nM, read-out: UCHL1 activity, data point mean): 87.4%
remaining activity at 0.367431 µM (UCHL1 [2]; compound 367.431 nM, read-out: UCHL1 activity, data point mean): 90.4%
remaining activity at 1.10229 µM (UCHL1 [2]; compound 1102.29 nM, read-out: UCHL1 activity, data point mean): 91.3%
remaining activity at 3.30688 µM (UCHL1 [2]; compound 3306.88 nM, read-out: UCHL1 activity, data point mean): 90.9%
remaining activity at 30.581 µM (UCHL1 [2]; compound 30581 nM, read-out: UCHL1 activity, data point mean): 81%
remaining activity at 100 µM (UCHL1 [2]; compound 100000 nM, read-out: UCHL1 activity, data point mean): 68.2%
Fold change log2, protein 02. Sep (HEK293 cells proteome): 0.4147
Fold change log2, protein 07. Sep (HEK293 cells proteome): 0.472
melting temperature (Tm) of UCHL1 (UCHL1 [3]; compound 1.25 µM): 53.4 and 53.1
melting temperature (Tm) of UCHL1 (UCHL1 [3]; compound 2.5 µM): 53.4 and 53.1
melting temperature (Tm) of UCHL1 (UCHL1 [3]; compound 5 µM): 53.1 and 53.4
enrichment factor of UCHL1 (log2, vs DMSO) (UCHL1 [4]): 3
inhibition of cellular UCHL1 (UCHL1 in HEK293 cells; HEK293 cells, 24 h): did not equate to a detectable inhibition; also recorded: does not inhibit cellular UCHL1

C#CCn1ccc2c(-c3cccc4c3CCN4C(=O)[C@@H]3CCCN3C#N)ccnc21 [CG173]
kinact/KI (UCHL1 [5]): 597 ± 209 M⁻¹ s⁻¹
apoptosis and growth arrest (HEK293 cells; 1.3 and 5 µM): strong induction of apoptosis and growth arrest
IC50 (UCHL1 [2]; mean ± SD of independent experiments): 0.043 ± 0.019 µM
DUB engagement (Ub-VS competitive labeling) (DUBs in HEK293 lysate): Ubiquitin-probe competitive band of approx. 30 kDa
protein stabilization of UCHL1 compared with GK13S (UCHL1 [3]; Supplementary Fig. 5c): reduced protein stabilization
inhibition of cellular UCHL1 (UCHL1 in HEK293 cells; after 1 h (Supplementary Fig. 5f)): very low degree of inhibition
inhibition of cellular UCHL1 (UCHL1 in HEK293 cells; after 24 h incubation (Supplementary Fig. 5f)): no inhibition of cellular UCHL1 at all

CC(=O)O/N=C1\C(=O)N(Cc2cc(Cl)ccc2Cl)c2ccc(Cl)cc21 [LDN-57444, reference compound]
inhibition of cellular UCHL1 (UCHL1 in U-87 MG cells): does not lead to inhibition of cellular UCHL1

NC(=O)CI [IAA, iodoacetamide, reference compound]
IC50 (UCHL3 A11I): 1900 ± 100 µM
IC50 (UCHL3): 1700 ± 100 µM
IC50 (UCHL3 A11I+L168F): 2200 ± 100 µM
IC50 (UCHL3 L168F): 2000 ± 100 µM

N#Cc1ccc(-c2ccc(C[C@@H](C#N)NC(=O)C3(N)CCOCC3)cc2)cc1 [AZD5248]
IC50 (Cathepsin C): 0.0029 µM
